Consider 2 substances from patent US20250281629A1, “COMPOSITIONS AND METHODS FOR ANTI-PHOSPHOCHOLINE ACTIVE IMMUNOTHERAPY” (Duke University, priority 2022, published 2025).

Where no end group is shown, it is not given here. C11H22NO6P = phosphorylcholine group attached via 2-methacryloyloxyethyl phosphorylcholine A value given as a limit tells only on which side of the number the result lay.

What all share (assay type): in vivo, mouse
For experiment [1], the system named is CD4^+ T-cell depleted mice. Description: Anti-PC responses in CD4+ T-cell depleted mice. The settings on record: for anti-PC IgM in the absence of CD4+ T cells: anti-CD4 antibody; for main anti-PC IgG subclass in CD4+ T cell-depleted mice: week 3. On the procedure:
Detection of Anti-PC Antibody Responses via ELISA. Anti-PC antibody responses in serum collected from the submandibular vein in mice were measured using ELISA. Briefly, plates were coated with 20 μg/mL PC-BSA (Biosearch Technologies, PC-1011-10) in 1×PBS or just 1×PBS at 4° C. overnight. The next day, the plates were washed using 1×PBST (1×PBS with 0.05% Tween 20) and then blocked three times with Superblock blocking buffer solution (Thermo Fisher, 37515). Serum diluted from 1:10^2 to 1:10^5 in 1% BSA in 1×PBST was the added to the plate and allowed to incubate for 2 h at room temperature. Anti-PC IgG was detected using HRP-conjugated Fcγ fragment-specific goat anti-mouse IgG (Jackson Immuno Research, 15-035-071). IgG subclasses and IgM anti-PC antibodies were detected using Southern Biotech HRP-conjugated goat anti-mouse antibodies (IgG1, IgG2b, IgG2c, IgG3, & IgM: 5300-05B). Area under the curve (AUC) measurements were calculated using background-subtracted absorbance values at dilutions from 1:10^2 to 1:10^5. Antibody titers were defined using an absorbance cutoff above background of 0.2 OD, where titer 2 represents an OD value greater than 0.2 at 1:10^2 dilution and so on up to titer 5 at 1:10^5 dilution.
T Cell ELISpot. T-cell responses were measured using ELISpot. Mice were euthanized 6 days after booster immunization and splenocytes were isolated using Lympholyte-M (Cedarlane, c15031). Splenocytes were stimulated with either media (negative control), Concanavalin A (ConA) (Sigma, C5275) (positive control), or PADRE peptide (1 μM) and then plated at 250,000 cells/well on IL-4 and IFN-γ capture antibody-coated 96-well ELISpot plates (Millipore, MSIPS4510). IL-4 (BD, 551878) and IFNγ (BD, 551881) detection antibodies followed by streptavidin-alkaline phosphatase (Mabtech, 3310-0) and Sigmafast BCIP/NBT (Sigma, B5655) were used to develop cell spots. The quantification of cell spots was then outsourced to Zellnet Consulting Services which uses a Zeiss KS ELISPOT reader. ELISpot counts shown represent spot counts after the subtraction of spots in the negative control wells for each sample.
CD4 T cell Depletion. Mice were given 200 μg of either anti-mouse CD4 (InVivoMAb, clone GK1.5, BioXCell, BE0003-1) or isotype control (InVivoMAb rat IgG2b isotype control anti-KLH, clone LTF-2, BioXCell, BE0090) antibodies in 100 μL InVivoPure pH 6.5 dilution buffer (BioXCell, IP0065) via i.p. injection at days −3, −1, 3, 7, 11, 15, and 19. On days 0 and 22, cells from the spleen, draining lymph nodes (axial, brachial, and inguinal), and mesenteric lymph nodes of unimmunized mice were isolated via physical separation using a 70 μm filter in order to verify CD4^+ T-cell depletion (FIGS. 11A-11E, representative flow cytometry shown in FIG. 12). The cells were treated with mouse BD Fc Block (Clone: 2.4G2) (BD Biosciences, 553142) in flow buffer on ice for 30 min and then washed and stained with antibodies against the following markers: CD4-FITC (Clone: GK1.5) (BD Biosciences, 557307), CD45-PE (Clone: 30-F11) (BioLegend, 103106), CD8a-PE-Cy7 (Clone: 53-6.7 (BD Biosciences, 552877), and CD3e-BV605 (Clone: 145-2C11) (BD Biosciences, 563004) in flow buffer for 30 min on ice. Cells were then washed in flow buffer and stained with DAPI. Flow cytometry was conducted on a BD FACSCanto II cytometer and the results were analyzed using FlowJo software. To determine the importance of PADRE T-cell epitope inclusion in immunizations, anti-CD4 or isotype control antibody-administered mice were immunized on days 0 and 14, with anti-PC antibodies measured at days 0, 7, and 22 via ELISA and T-cell responses measured on day 22 via ELISpot.

Experiment [2] has as its system macrophages (F4/80+). The experiment in a line: Nanofiber uptake in i.p. lavage cells, flow cytometry: macrophages. The settings on record: 4 hours after i.p. injection of TAMRA-labeled nanofibers. On the procedure:
(§1) Nanofiber Uptake and Evaluation. The cell types present and their propensity to uptake nanofibers in the i.p. space was tested by injecting mice i.p. with 100 μL of 2 mM TAMRA-labeled fluorescent nanofibers. 4 hours later, mice were euthanized and i.p. lavage was conducted via the injection of 2 mL of cold 1×PBS into the peritoneal cavity and massaging the abdomen for 30 seconds. The solution was then carefully extracted from the i.p. space and the cells were isolated followed by rinsing with ice cold flow buffer (2% heat-inactivated FBS in 1×PBS). The cells present were treated with mouse BD Fc Block (Clone: 2.4G2) (BD Biosciences, 553142) in flow buffer on ice for 30 min and then washed and stained with antibodies against the following markers: CD5-APC (Clone: 53-7.3) (BioLegend, 100626), F4/80-PerCP/Cy5.5 (Clone: BM8) (BioLegend, 123128), CD19-APC/Cy7 (Clone: 6D5) (BioLegend, 115530), CD11c-PE/Cy7 (Clone: N418) (BioLegend, 117318), and CD86-BV605 (Clone: GL1) (BD Biosciences, 2272591) in flow buffer for 30 min on ice. TAMRA-fluorescence as an indication of nanofiber uptake was measured on the PE channel. Cells were then washed in flow buffer and stained with DAPI. Flow cytometry was conducted on a BD FACSCanto II cytometer and the results were analyzed using FlowJo software.
A general note: A flow cytometer gives signals particle by particle.

Experiment [3] has as its system non-B1a B cells (CD19+CD5−). Description: Nanofiber uptake in i.p. lavage cells, flow cytometry: non-B1a B cells. The following applies: for non-B1a B cells that acquired nanofibers: 4 hours after i.p. injection of TAMRA-labeled nanofibers. How it is done:
as §1

In experiment [4] the test system is dendritic cells (F4/80−CD11c+). The experiment in a line: Nanofiber uptake in i.p. lavage cells, flow cytometry: dendritic cells. The settings on record: 4 hours after i.p. injection of TAMRA-labeled nanofibers. How it is done: as §1
[5] abbreviates: i.p. day 0 and 14, with PADRE-Q11 and CpG.

For the substance “(C11H22NO6P)n-CCCCSGSG-QQKFQFQFEQQ-NH2 (CCCCSGSGQQKFQFQFEQQ-NH2; not fully specified; cysteine pairing not given here; also: phosphorylcholine groups (C11H22NO6P) n=1-4, attachment not placed) [PCM-Q11, linear multi-PC conjugate]”, in experiment [1] (setting [5]), the “anti-PC IgM, isotype control vs CD4-depleted” value is reported as “significantly greater for PCM-Q11 immunizations when CD4^+ T cells were present”; the “total anti-PC IgG production, dependence on CD4+ T cells” value was “reliant on CD4^+ T cells”; the “anti-PC IgM in the absence of CD4+ T cells” value is “generated by both immunizations in the absence of CD4^+ T cells”. For the same substance, the “main anti-PC IgG subclass in CD4+ T cell-depleted mice” value in experiment [1] is given as “IgG3”. In addition, in experiment [2], the “macrophages staining positively for nanofibers” value is recorded as “almost all macrophages staining positively for nanofibers”. For the same substance, the “non-B1a B cells that acquired nanofibers” value in experiment [3] is below 30%. Besides, in experiment [3] (compared with PC-Q11, Q11, or PBS alone), the “non-B1a B cells in the peritoneal cavity (total cells)” value is “reduction in non-B1a B cells”. Moreover, in experiment [4], the “DCs that acquired nanofibers” value is recorded as below 30%.
As to “C11H22NO6P-CSGSG-QQKFQFQFEQQ-NH2 (C(C11H22NO6P)SGSGQQKFQFQFEQQ-NH2) [PC-Q11, phosphodiester PC-Q11]”, in experiment [1] (setting [5]), the “total anti-PC IgG production, dependence on CD4+ T cells” value is listed as “reliant on CD4^+ T cells” and the “anti-PC IgM in the absence of CD4+ T cells” value is reported as “generated by both immunizations in the absence of CD4^+ T cells”. Besides, in experiment [1], the “main anti-PC IgG subclass in CD4+ T cell-depleted mice” value is “IgG3”. Moreover, the “macrophages staining positively for nanofibers” value in experiment [2] is “almost all macrophages staining positively for nanofibers”. Moreover, the “TAMRA MFI of non-B1a B cells” value in experiment [3] (4 hours after i.p. injection) was “selective uptake”. Further, the “non-B1a B cells that acquired nanofibers” value in experiment [3] is “over 80%”. Moreover, in experiment [3] (total TAMRA+ cells categorized by cell type), the “non-B1a B cells among total TAMRA+ cells” value is on record as “acquired primarily by non-B1a B cells”. For the same substance, the “DCs that acquired nanofibers” value in experiment [4] is “about 67%”.
